Laboratory results taken from patent US11919901B2 (Syndax Pharmaceuticals, Inc., priority 2021, dated 2024).

Tests used:
Menin-MLL = Menin-MLL (Homo sapiens (Human), UniProt O00255); assay: Determination of binding constants (Ki) to Menin-MLL (HTRF); details: HTRF; 0.25 nM H-FL-Menin, 3.2 nM FITC-MLL-4-43, 24 hr incubation; read-out: Menin-MLL Ki HTRF Assay: Ki
hERG = hERG (Homo sapiens (Human), UniProt Q12809); assay: Patch clamp assay (hERG tail currents, whole-cell); assay type: cell-based; details: hERG transfected HEK 293 cells; for hERG % Remaining 10 μM: 10 μM compound; for hERG % Remaining 30 μM: 30 μM compound; for hERG % Remaining 100 μM: 100 μM compound
Chain of hERG (Q12809 whole entry): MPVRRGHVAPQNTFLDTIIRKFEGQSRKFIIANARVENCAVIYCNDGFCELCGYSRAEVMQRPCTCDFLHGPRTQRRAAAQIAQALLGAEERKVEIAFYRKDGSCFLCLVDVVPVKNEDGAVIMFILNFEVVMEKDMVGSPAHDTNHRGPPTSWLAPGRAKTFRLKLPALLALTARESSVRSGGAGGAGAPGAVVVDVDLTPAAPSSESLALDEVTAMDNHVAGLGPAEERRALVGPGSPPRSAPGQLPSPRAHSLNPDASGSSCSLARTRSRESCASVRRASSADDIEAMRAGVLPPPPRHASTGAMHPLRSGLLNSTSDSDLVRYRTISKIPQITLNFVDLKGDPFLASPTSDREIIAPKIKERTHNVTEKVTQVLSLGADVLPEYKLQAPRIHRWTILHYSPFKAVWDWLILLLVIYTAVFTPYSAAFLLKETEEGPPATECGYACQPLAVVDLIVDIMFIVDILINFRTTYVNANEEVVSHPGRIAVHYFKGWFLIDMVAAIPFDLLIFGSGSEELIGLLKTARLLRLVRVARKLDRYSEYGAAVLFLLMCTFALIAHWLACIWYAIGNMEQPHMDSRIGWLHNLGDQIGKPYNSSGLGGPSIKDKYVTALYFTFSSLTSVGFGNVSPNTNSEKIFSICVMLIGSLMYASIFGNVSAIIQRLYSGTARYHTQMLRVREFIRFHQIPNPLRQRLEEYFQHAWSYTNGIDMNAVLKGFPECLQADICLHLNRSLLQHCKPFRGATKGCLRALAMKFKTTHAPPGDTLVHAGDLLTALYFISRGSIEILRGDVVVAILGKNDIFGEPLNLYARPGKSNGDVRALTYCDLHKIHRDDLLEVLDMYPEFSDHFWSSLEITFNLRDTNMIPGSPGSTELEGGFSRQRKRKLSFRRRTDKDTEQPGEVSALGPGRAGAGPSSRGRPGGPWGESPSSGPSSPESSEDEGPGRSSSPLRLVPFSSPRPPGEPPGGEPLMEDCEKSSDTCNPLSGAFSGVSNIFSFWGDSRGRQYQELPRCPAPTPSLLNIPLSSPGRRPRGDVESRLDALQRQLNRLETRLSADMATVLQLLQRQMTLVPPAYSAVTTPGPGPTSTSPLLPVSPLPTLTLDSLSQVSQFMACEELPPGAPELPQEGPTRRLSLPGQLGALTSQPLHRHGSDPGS

Chain of Menin-MLL (O00255 whole entry): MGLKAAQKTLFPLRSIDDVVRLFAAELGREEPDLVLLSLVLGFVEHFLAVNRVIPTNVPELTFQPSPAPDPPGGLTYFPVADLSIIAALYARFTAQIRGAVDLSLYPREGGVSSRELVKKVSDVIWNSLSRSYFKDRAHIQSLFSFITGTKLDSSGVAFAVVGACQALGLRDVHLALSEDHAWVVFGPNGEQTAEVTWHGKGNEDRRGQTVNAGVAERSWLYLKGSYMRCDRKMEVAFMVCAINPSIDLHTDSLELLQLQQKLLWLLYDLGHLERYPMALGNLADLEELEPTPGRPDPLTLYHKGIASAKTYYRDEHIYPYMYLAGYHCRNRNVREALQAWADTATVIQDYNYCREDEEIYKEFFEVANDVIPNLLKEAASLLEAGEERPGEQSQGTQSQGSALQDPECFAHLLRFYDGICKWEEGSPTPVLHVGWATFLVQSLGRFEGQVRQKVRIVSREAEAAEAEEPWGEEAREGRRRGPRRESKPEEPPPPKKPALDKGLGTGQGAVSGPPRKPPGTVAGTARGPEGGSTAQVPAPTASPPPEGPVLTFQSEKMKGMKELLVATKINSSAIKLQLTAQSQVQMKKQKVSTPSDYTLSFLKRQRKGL

SMILES	Ki (Menin-MLL) [nM]	hERG % Remaining 10 μM (hERG)	hERG % Remaining 30 μM (hERG)	hERG % Remaining 100 μM (hERG)	IC50 (hERG) [nM]	IC50 (hERG; human, HEK 293 cells stably transfected with hERG) [nM]
CCN(CC)S(=O)(=O)N[C@@H]1CC[C@@H](CN2CCC3(CC2)CN(c2ncncc2Oc2ccc(F)cc2C(=O)N(C(C)C)[C@@H]2CCOC2)C3)OC1 [Compound 165, 2-((4-(7-(((2S,5R)-5-((N,N-Diethylsulfamoyl)amino)tetrahydro-2H-pyran-2-yl)methyl)-2,7-diazaspiro[3.5]nonan-2-yl)pyrimidin-5-yl)oxy)-5-fluoro-N-isopropyl-N-((R)-tetrahydrofuran-3-yl)benzamide]	< 1	+++ (“+++” means ≥66%)	++ (“++” means ≥33% and <66%)			
CC(C)N(C(=O)c1cc(F)ccc1Oc1cncnc1N1CC2(CCN(C[C@@H]3CC[C@@H](NS(=O)(=O)N(C)C)CO3)CC2)C1)[C@@H]1CCOC1 [Compound 167, 2-((4-(7-(((2S,5R)-5-((N,N-Dimethylsulfamoyl)amino)tetrahydro-2H-pyran-2-yl)methyl)-2,7-diazaspiro[3.5]nonan-2-yl)pyrimidin-5-yl)oxy)-5-fluoro-N-isopropyl-N-((R)-tetrahydrofuran-3-yl)benzamide]	< 1		+++ (“+++” means ≥66%)	+++ (“+++” means ≥66%)	≥ 50000	
CCN(CC)S(=O)(=O)N[C@@H]1CC[C@@H](CN2CCC3(CC2)CN(c2ncncc2Oc2ccc(F)cc2C(=O)N(C(C)C)[C@H]2CCOC2)C3)OC1 [Compound 175, 2-((4-(7-(((2S,5R)-5-((N,N-Diethylsulfamoyl)amino)tetrahydro-2H-pyran-2-yl)methyl)-2,7-diazaspiro[3.5]nonan-2-yl)pyrimidin-5-yl)oxy)-5-fluoro-N-isopropyl-N-((S)-tetrahydrofuran-3-yl)benzamide]	< 1	++ (“++” means ≥33% and <66%)	+ (“+” means <33%)			
CC(C)N(C(=O)c1cc(F)ccc1Oc1cncnc1N1CC2(CCN(C[C@@H]3CC[C@@H](NS(=O)(=O)C4CC4)CO3)CC2)C1)[C@H]1CCOC1 [Compound 176, 2-((4-(7-(((2S,5R)-5-(Cyclopropanesulfonamido)tetrahydro-2H-pyran-2-yl)methyl)-2,7-diazaspiro[3.5]nonan-2-yl)pyrimidin-5-yl)oxy)-5-fluoro-N-isopropyl-N-((S)-tetrahydrofuran-3-yl)benzamide]	< 1	+++ (“+++” means ≥66%)	+++ (“+++” means ≥66%)	+++ (“+++” means ≥66%)		≥ 50000
CC(C)N(C(=O)c1cc(F)ccc1Oc1cncnc1N1CC2(CCN(C[C@@H]3CC[C@@H](NS(=O)(=O)N(C)C)CO3)CC2)C1)[C@H]1CCOC1 [Compound 177, 2-((4-(7-(((2S,5R)-5-((N,N-Dimethylsulfamoyl)amino)tetrahydro-2H-pyran-2-yl)methyl)-2,7-diazaspiro[3.5]nonan-2-yl)pyrimidin-5-yl)oxy)-5-fluoro-N-isopropyl-N-((S)-tetrahydrofuran-3-yl)benzamide]	< 1	+++ (“+++” means ≥66%)	+++ (“+++” means ≥66%)			
CC(C)N(CC#N)C(=O)c1cc(F)ccc1Oc1cncnc1N1CC2(CCN(C[C@@H]3CC[C@@H](NS(=O)(=O)N(C)C)CO3)CC2)C1 [Compound 181, N-(Cyanomethyl)-2-((4-(7-(((2S,5R)-5-((N,N-dimethylsulfamoyl)amino)tetrahydro-2H-pyran-2-yl)methyl)-2,7-diazaspiro[3.5]nonan-2-yl)pyrimidin-5-yl)oxy)-5-fluoro-N-isopropylbenzamide]	< 1		+++ (“+++” means ≥66%)			
CC(C)N(CC#N)C(=O)c1cc(F)ccc1Oc1cncnc1N1CC2(CCN(C[C@@H]3CC[C@@H](NS(=O)(=O)N4CCC4)CO3)CC2)C1 [Compound 182, 2-((4-(7-(((2S,5R)-5-(Azetidine-1-sulfonamido)tetrahydro-2H-pyran-2-yl)methyl)-2,7-diazaspiro[3.5]nonan-2-yl)pyrimidin-5-yl)oxy)-N-(cyanomethyl)-5-fluoro-N-isopropylbenzamide]	< 1		+++ (“+++” means ≥66%)			
CC(C)N(CCC#N)C(=O)c1cc(F)ccc1Oc1cncnc1N1CC2(CCN(C[C@@H]3CC[C@@H](NS(=O)(=O)N(C)C)CO3)CC2)C1 [Compound 183, N-(2-Cyanoethyl)-2-((4-(7-(((2S,5R)-5-((N,N-dimethylsulfamoyl)amino)tetrahydro-2H-pyran-2-yl)methyl)-2,7-diazaspiro[3.5]nonan-2-yl)pyrimidin-5-yl)oxy)-5-fluoro-N-isopropylbenzamide]	< 1		+++ (“+++” means ≥66%)			
CC(C)N(CC(F)F)C(=O)c1cc(F)ccc1Oc1nncnc1N1CC2(CCN(C[C@@H]3CC[C@@H](NS(=O)(=O)N4CCC4)CO3)CC2)C1 [Compound 189, 2-((5-(7-(((2S,5R)-5-(Azetidine-1-sulfonamido)tetrahydro-2H-pyran-2-yl)methyl)-2,7-diazaspiro[3.5]nonan-2-yl)-1,2,4-triazin-6-yl)oxy)-N-(2,2-difluoroethyl)-5-fluoro-N-isopropylbenzamide]	< 1		+++ (“+++” means ≥66%)			
CC(C)N(C(=O)c1cc(F)ccc1Oc1nncnc1N1CC2(CCN(C[C@@H]3CC[C@@H](NS(=O)(=O)C4CC4)CO3)CC2)C1)C(C)C [Compound 196, 2-((5-(7-(((2S,5R)-5-(Cyclopropanesulfonamido)tetrahydro-2H-pyran-2-yl)methyl)-2,7-diazaspiro[3.5]nonan-2-yl)-1,2,4-triazin-6-yl)oxy)-5-fluoro-N,N-diisopropylbenzamide]	< 1		+++ (“+++” means ≥66%)			
CCNS(=O)(=O)N[C@@H]1CC[C@@H](CN2CCC3(CC2)CN(c2ncnnc2Oc2ccc(F)cc2C(=O)N(C(C)C)C(C)C)C3)OC1 [Compound 198]	< 1		+++ (“+++” means ≥66%)			
CC(C)N(C(=O)c1cc(F)ccc1Oc1nncnc1N1CC2(CCN(C[C@@H]3CC[C@@H](NS(=O)(=O)N4CCC4)CO3)CC2)C1)C(C)C [Compound 199, 2-((5-(7-(((2S,5R)-5-(Azetidine-1-sulfonamido)tetrahydro-2H-pyran-2-yl)methyl)-2,7-diazaspiro[3.5]nonan-2-yl)-1,2,4-triazin-6-yl)oxy)-5-fluoro-N,N-diisopropylbenzamide]	< 1		+++ (“+++” means ≥66%)			
CCN(C(=O)c1cc(F)ccc1Oc1cncnc1N1CC2(CCN(C[C@@H]3CC[C@@H](NS(=O)(=O)N4CCC[C@H]4C)CO3)CC2)C1)C(C)C [Compound 200, N-Ethyl-5-fluoro-N-isopropyl-2-((4-(7-(((2S,5R)-5-(((R)-2-methylpyrrolidine)-1-sulfonamido)tetrahydro-2H-pyran-2-yl)methyl)-2,7-diazaspiro[3.5]nonan-2-yl)pyrimidin-5-yl)oxy)benzamide]	< 1	++ (“++” means ≥33% and <66%)	+ (“+” means <33%)			
CCN(C(=O)c1cc(F)ccc1Oc1cncnc1N1CC2(CCN(C[C@@H]3CC[C@@H](NS(=O)(=O)N4CCC[C@@H]4C)CO3)CC2)C1)C(C)C [Compound 201, N-Ethyl-5-fluoro-N-isopropyl-2-((4-(7-(((2S,5R)-5-(((S)-2-methylpyrrolidine)-1-sulfonamido)tetrahydro-2H-pyran-2-yl)methyl)-2,7-diazaspiro[3.5]nonan-2-yl)pyrimidin-5-yl)oxy)benzamide]	< 1	+ (“+” means <33%)	+ (“+” means <33%)			
CC(C)N(C(=O)c1cc(F)ccc1Oc1cncnc1N1CC2(CCN(C[C@@H]3CC[C@@H](NS(=O)(=O)N4CCC[C@@H]4C)CO3)CC2)C1)C(C)C [Compound 202, 5-Fluoro-N,N-diisopropyl-2-((4-(7-(((2S,5R)-5-(((S)-2-methylpyrrolidine)-1-sulfonamido)tetrahydro-2H-pyran-2-yl)methyl)-2,7-diazaspiro[3.5]nonan-2-yl)pyrimidin-5-yl)oxy)benzamide]	< 1		+ (“+” means <33%)			
CC(C)N(C(=O)c1cc(F)ccc1Oc1cncnc1N1CC2(CCN(C[C@@H]3CC[C@@H](NS(=O)(=O)N4CCC[C@H]4C)CO3)CC2)C1)C(C)C [Compound 203, 5-Fluoro-N,N-diisopropyl-2-((4-(7-(((2S,5R)-5-(((R)-2-methylpyrrolidine)-1-sulfonamido)tetrahydro-2H-pyran-2-yl)methyl)-2,7-diazaspiro[3.5]nonan-2-yl)pyrimidin-5-yl)oxy)benzamide]	< 1		+ (“+” means <33%)			
C[C@@H]1COC[C@@H](C)N1C(=O)c1cc(F)ccc1Oc1cncnc1N1CC2(CCN(C[C@@H]3CC[C@@H](NS(=O)(=O)N4CCC[C@H]4C)CO3)CC2)C1 [Compound 208, (R)-N-((3R,6S)-6-((2-(5-(2-((3R,5R)-3,5-Dimethylmorpholine-4-carbonyl)-4-fluorophenoxy)pyrimidin-4-yl)-2,7-diazaspiro[3.5]nonan-7-yl)methyl)tetrahydro-2H-pyran-3-yl)-2-methylpyrrolidine-1-sulfonamide]	< 1		+++ (“+++” means ≥66%)			
C[C@@H]1COC[C@@H](C)N1C(=O)c1cc(F)ccc1Oc1cncnc1N1CC2(CCN(C[C@@H]3CC[C@@H](NS(=O)(=O)N4CCC[C@@H]4C)CO3)CC2)C1 [Compound 209, (S)-N-((3R,6S)-6-((2-(5-(2-((3R,5R)-3,5-Dimethylmorpholine-4-carbonyl)-4-fluorophenoxy)pyrimidin-4-yl)-2,7-diazaspiro[3.5]nonan-7-yl)methyl)tetrahydro-2H-pyran-3-yl)-2-methylpyrrolidine-1-sulfonamide]	< 1		+++ (“+++” means ≥66%)			
